In the assay the target is human activated kallikrein enzyme (Homo sapiens, UniProt P03952). Nature of the assay: Inhibition of human activated plasma kallikrein, fluorogenic peptide substrate (PFR-AMC), 500 pM enzyme format. In kind it is biochemical. The settings on record: 500 pM activated kallikrein, 30 min preincubation, 10 min reaction, room temperature, read-out: Primary Dose Response Assay: Average EC50. The procedure: Compounds were evaluated for inhibition of the human activated kallikrein enzyme in two formats of an assay employing a fluorogenic peptide substrate. In one assay format, the concentrations of reagents were as follows: 20 mM Tris pH 7.5, 1 mM EDTA, 150 mM sodium chloride, 0.1% PEG-400, 0.1% Triton X-100, 500 pM activated kallikrein enzyme, […] Pro-Phe-Arg-7-amido-4-methylcoumarin (PFR-AMC) substrate. Prior to reaction initiation with substrate, enzyme and inhibitors were preincubated for 30 min at room temperature. After initiation with substrate, reactions were incubated for 10 min at room temperature and fluorescence emission at 460 nm from 380 nm excitation measured with a microplate reader. In another assay format, the concentrations of reagents were as follows: 20 mM Tris pH 7.5, 1 mM EDTA, 150 mM sodium chloride, 0.1% PEG-400, 0.1% Triton X-100, 5 pM activated kallikrein enzyme, 300 uM PFR-AMC substrate. Prior to reaction initiation with substrate, enzyme and inhibitors were preincubated for 30 min at room temperature. After initiation with substrate, reactions were incubated for 18 hr at room temperature and fluorescence emission at 460 nm from 380 nm excitation measured with a microplate reader.
Chain of human activated kallikrein enzyme (P03952 391-638 limits assumed): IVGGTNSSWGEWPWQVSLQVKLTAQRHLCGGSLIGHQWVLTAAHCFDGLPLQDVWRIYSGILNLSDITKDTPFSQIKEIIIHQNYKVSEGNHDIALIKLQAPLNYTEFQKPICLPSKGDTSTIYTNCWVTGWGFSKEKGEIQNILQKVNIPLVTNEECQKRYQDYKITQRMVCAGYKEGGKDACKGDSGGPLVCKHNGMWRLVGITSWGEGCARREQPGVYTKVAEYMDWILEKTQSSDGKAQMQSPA
Chain of human activated kallikrein enzyme (P03952 20-390 partner limits assumed): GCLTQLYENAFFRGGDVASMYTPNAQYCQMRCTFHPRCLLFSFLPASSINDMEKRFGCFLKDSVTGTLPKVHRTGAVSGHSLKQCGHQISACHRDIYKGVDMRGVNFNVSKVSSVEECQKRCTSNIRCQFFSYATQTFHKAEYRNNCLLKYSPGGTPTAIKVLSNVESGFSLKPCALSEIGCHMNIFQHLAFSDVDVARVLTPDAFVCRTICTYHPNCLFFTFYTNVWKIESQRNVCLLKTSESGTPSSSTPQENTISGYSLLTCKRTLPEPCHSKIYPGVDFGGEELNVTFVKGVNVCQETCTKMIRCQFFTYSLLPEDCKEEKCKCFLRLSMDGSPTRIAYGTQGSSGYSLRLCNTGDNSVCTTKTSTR

Data on 25 molecules can be found in patent US20240226106A1, “INHIBITORS OF PLASMA KALLIKREIN” (SHIRE HUMAN GENETIC THERAPIES, INC., priority 2021, published 2024).

Take `O=C(Nc1cc(OCc2csc(-c3ccccc3)n2)cnn1)[C@H]1C[C@@H]1c1cccc(Cl)c1` (racemic) [Example 2, rac-(1S*,2S*)-2-(3-chlorophenyl)-N-(5-((2-phenylthiazol-4-yl)methoxy)pyridazin-3-yl)cyclopropane-1-carboxamide]: the EC50 was over 500 nM. Take `O=C(Nc1cc(NCc2ccc(Cn3ccccc3=O)cc2)cnn1)[C@@H]1C[C@H]1c1cccc(Cl)c1` (single isomer, unassigned) [Example 16]: the 50% effective concentration (EC50) was under 2.5 nM. Next, `O=C(Nc1cc(NCc2cn3c(=O)n(C4CC4)ccc3n2)ccn1)[C@H]1C[C@@H]1c1cccc(Cl)c1` [Example 36, (1S,2S)-2-(3-chlorophenyl)-N-(4-(((6-cyclopropyl-5-oxo-5,6-dihydroimidazo[1,2-c]pyrimidin-2-yl)methyl)amino)pyridin-2-yl)cyclopropane-1-carboxamide]: 2.5 to 25 nM. Regarding `CC(C)n1ccc2nc(CNc3cc(NC(=O)[C@H]4C[C@@H]4c4cccc(Cl)c4)ncn3)cn2c1=O` [Example 38, (1S,2S)-2-(3-chlorophenyl)-N-(6-(((6-isopropyl-5-oxo-5,6-dihydroimidazo[1,2-c]pyrimidin-2-yl)methyl)amino)pyrimidin-4-yl)cyclopropane-1-carboxamide], the EC50 was 25 to 500 nM. Then `Nc1ncccc1[C@H]1C[C@@H]1C(=O)Nc1cc(OCc2ccc(Cn3cccn3)cc2)cnn1` (racemic) [Example 8, rac-(1S*,2S*)—N-(5-((4-((1H-pyrazol-1-yl)methyl)benzyl)oxy)pyridazin-3-yl)-2-(2-aminopyridin-3-yl)cyclopropane-1-carboxamide], with 25 to 500 nM.

Regarding `Cc1ccnc([C@H]2C[C@@H]2C(=O)Nc2cc(N3C[C@@H](O)C[C@@H]3c3cn4cc(C5CC5)cnc4n3)ncn2)c1F` (relative stereo) [Example 76, rac-(1S*,2S*)—N-(6-((2R,4S)-2-(6-cyclopropylimidazo[1,2-a]pyrimidin-2-yl)-4-hydroxypyrrolidin-1-yl)pyrimidin-4-yl)-2-(3-fluoro-4-methylpyridin-2-yl)cyclopropane-1-carboxamide], the concentration for a half-maximal effect (EC50) is 25 to 500 nM. Next, `CN1CCN(c2cc(Cl)cc3cc(CNc4cc(NC(=O)[C@H]5C[C@@H]5c5cccc(Cl)c5)ncn4)cnc23)CC1` [Example 59, (1S,2S)—N-(6-(((6-chloro-8-(4-methylpiperazin-1-yl)quinolin-3-yl)methyl)amino)pyrimidin-4-yl)-2-(3-chlorophenyl)cyclopropane-1-carboxamide]: 2.5 to 25 nM. As for `O=C(Nc1cc(OCc2ccc(Cn3ccc(C4CC4)n3)cc2)cnn1)[C@H]1C[C@@H]1c1cccc(Cl)c1` (racemic) [Example 4, rac-(1S*,2S*)-2-(3-chlorophenyl)-N-(5-((4-((3-cyclopropyl-1H-pyrazol-1-yl)methyl)benzyl)oxy)pyridazin-3-yl)cyclopropane-1-carboxamide], the EC50 was over 500 nM. Next, `O=C(Nc1cc(NCc2nc3ccc(C4CC4)cn3n2)ncn1)[C@H]1C[C@@H]1c1cccc(Cl)c1` [Example 26, (1S,2S)-2-(3-chlorophenyl)-N-(6-(((6-cyclopropyl-[1,2,4]triazolo[1,5-a]pyridin-2-yl)methyl)amino)pyrimidin-4-yl)cyclopropane-1-carboxamide]: 25 to 500 nM.

Take `Cc1ccnc([C@H]2C[C@@H]2C(=O)Nc2cc(N3C[C@@H](O)CC3c3ccc(N4CC5CC5C4)nc3)ncn2)n1` (relative stereo) [Example 69, rac-(1S*,2S*)—N-(6-((4S)-2-(6-(3-azabicyclo[3.1.0]hexan-3-yl)pyrin-3-yl)-4-hydroxypyrrolidin-1-yl)pyrimidin-4-yl)-2-(4-methylpyrimidin-2-yl)cyclopropane-1-carboxamide]: the EC50 lay within 2.5 to 25 nM.

As to `O=C(Nc1cc(NCc2nc3ccc(C4CC4)nn3n2)ncn1)[C@H]1C[C@@H]1c1cccc(Cl)c1` [Example 28, (1S,2S)-2-(3-chlorophenyl)-N-(6-(((6-cyclopropyl-[1,2,4]triazolo[1,5-b]pyridazin-2-yl)methyl)amino)pyrimidin-4-yl)cyclopropane-1-carboxamide], the EC50 was over 500 nM. As for `O=C(Nc1cc(NCc2ccc(Cn3ccccc3=O)cc2)cnn1)[C@H]1C[C@@H]1c1cccc(Cl)c1` (racemic) [Example 14, rac-(1S*,2S*)-2-(3-chlorophenyl)-N-(5-((4-((2-oxopyridin-1 (2H)-yl)methyl)benzyl)amino)pyridazin-3-yl)cyclopropane-1-carboxamide], the concentration giving a half-maximal response (EC50) was under 2.5 nM. Next, `O=C(Nc1cc(NCc2ccc3ncc(C4CC4)cc3c2)ccn1)[C@H]1C[C@@H]1c1cccc(Cl)c1` [Example 33, (1S,2S)-2-(3-chlorophenyl)-N-(4-(((3-cyclopropylquinolin-6-yl)methyl)amino)pyridin-2-yl)cyclopropane-1-carboxamide]: 2.5 to 25 nM.

As for `O=C(Nc1cc(OCc2ccc(Cn3cccn3)cc2)cnn1)[C@H]1C[C@@H]1c1cccc(Cl)c1` (racemic) [Example 18, rac-(1S*,2S*)—N-(5-((4-((1H-pyrazol-1-yl)methyl)benzyl)oxy)pyridazin-3-yl)-2-(3-chlorophenyl)cyclopropane-1-carboxamide], the EC50 is 2.5 to 25 nM. Turning to `O=C(Nc1cc(OCc2ccc(-c3ncc[nH]3)cc2)cnn1)[C@H]1C[C@@H]1c1cccc(Cl)c1` (racemic) [Example 13, rac-(1S*,2S*)—N-(5-((4-(1H-imidazol-2-yl)benzyl)oxy)pyridazin-3-yl)-2-(3-chlorophenyl)cyclopropane-1-carboxamide], the EC50 was over 500 nM. Then `Cc1ccnc([C@H]2C[C@@H]2C(=O)Nc2cc(NCc3ccc(N4CC5CC5C4)nc3)ncn2)n1` (relative stereo) [Example 79, rac-(1S*,2S*)—N-(6-(((6-(3-azabicyclo[3.1.0]hexan-3-yl)pyridin-3-yl)methyl)amino)pyrimidin-4-yl)-2-(4-methylpyrimidin-2-yl)cyclopropane-1-carboxamide], with 2.5 to 25 nM. With `O=C(Nc1cc(OCc2ccc(Cn3cccn3)cc2)cnn1)[C@H]1C[C@@H]1c1cncc(Cl)c1` (racemic) [Example 1, rac-(1S*,2S*)—N-(5-((4-((1H-pyrazol-1-yl)methyl)benzyl)oxy)pyridazin-3-yl)-2-(5-chloropyridin-3-yl)cyclopropane-1-carboxamide], the half-maximal effective concentration (EC50) is over 500 nM. Next, `O=C(Nc1cc(N2C[C@@H](O)CC2c2ccc(N3CC4CC4C3)nc2)ncn1)[C@H]1C[C@@H]1c1cccc(Cl)c1` (stereo partly drawn) [Example 67, (S,2S)—N-(6-((4S)-2-(6-(3-azabicyclo[3.1.0]hexan-3-yl)pyridin-3-yl)-4-hydroxypyrrolidin-1-yl)pyrimidin-4-yl)-2-(3-chlorophenyl)cyclopropane-1-carboxamide]: 25 to 500 nM; `O=C(Nc1cnn(Cc2ccc(Cn3cccn3)cc2)c1)[C@H]1C[C@@H]1c1cccc(Cl)c1` (racemic) [Example 10, rac-(1S*,2S*)—N-(1-(4-((1H-pyrazol-1-yl)methyl)benzyl)-1H-pyrazol-4-yl)-2-(3-chlorophenyl)cyclopropane-1-carboxamide]: over 500 nM. `O=C(Nc1cc(OCc2ccc(Cn3cccn3)cc2)cnn1)[C@H]1C[C@@H]1c1cccnc1Cl` (racemic) [Example 5, rac-(1S*,2S*)—N-(5-((4-((1H-pyrazol-1-yl)methyl)benzyl)oxy)pyridazin-3-yl)-2-(2-chloropyridin-3-yl)cyclopropane-1-carboxamide]: the EC50 was over 500 nM.

Consider `CN1CCN(c2cc(C3CC3)cn3nc(CNc4cc(NC(=O)[C@H]5C[C@@H]5c5cccc(Cl)c5)ncn4)nc23)CC1` [Example 58, (1S,2S)-2-(3-chlorophenyl)-N-(6-(((6-cyclopropyl-8-(4-methylpiperazin-1-yl)-[1,2,4]triazolo[1,5-a]pyridin-2-yl)methyl)amino)pyrimidin-4-yl)cyclopropane-1-carboxamide], for which the EC50 fell in the range of 2.5 to 25 nM.

For the molecule `CC(C)(C#N)Cc1cc(C2CC2)cc2cc(CNc3cc(NC(=O)[C@H]4C[C@@H]4c4cccc(Cl)c4)ncn3)nn12` [Example 55, (1S,2S)-2-(3-chlorophenyl)-N-(6-(((7-(2-cyano-2-methylpropyl)-5-cyclopropylpyrazolo[1,5-a]pyridin-2-yl)methyl)amino)pyrimidin-4-yl)cyclopropane-1-carboxamide], the EC50 lay within 2.5 to 25 nM.

Regarding `CC(Oc1cnnc(NC(=O)[C@H]2C[C@@H]2c2cccc(Cl)c2)c1)c1ccc(Cn2cccn2)cc1` (relative stereo) [Example 3, rac-(1S*,2S*)-N-(5-(1-(4-((1H-pyrazol-1-yl)methyl)phenyl)ethoxy)pyridazin-3-yl)-2-(3-chlorophenyl)cyclopropane-1-carboxamide], the EC50 is 2.5 to 25 nM. Then `O=C(Nc1cc(NCc2cn3c(NC4CC4)nccc3n2)ncn1)[C@H]1C[C@@H]1c1cccc(Cl)c1` [Example 50, (1S,2S)-2-(3-chlorophenyl)-N-(6-(((5-(cyclopropylamino)imidazo[1,2-c]pyrimidin-2-yl)methyl)amino)pyrimidin-4-yl)cyclopropane-1-carboxamide], with over 500 nM; and `O=C(Nc1cc(NCc2ccc(Cn3ccccc3=O)cc2)cnn1)[C@H]1C[C@H]1c1cccc(Cl)c1` (racemic) [Example 19, rac-(1R*,2S*)-2-(3-chlorophenyl)-N-(5-((4-((2-oxopyridin-1 (2H)-yl)methyl)benzyl)amino)pyridazin-3-yl)cyclopropane-1-carboxamide], with over 500 nM.

The term EC50 denotes the midpoint of the concentration-response curve.
